A word on the melting point: it is the temperature, or range, at which the solid turns liquid.

The text below walks through data of US20080108686A1, “N-(Ortho-Phenyl)-1-Methyl-3-Difluoromethylpyrazole-4-Carboxanilides And Their Use As Fungicides” (BASF Aktiengesellschaft, priority 2004, published 2008).

Data set [1] has as its system Puccinia recondita. Briefly: Use Example 1: curative activity against brown rust of wheat. The format is in vivo. As to conditions: curative spray 1 day after inoculation, wheat cultivar Kanzler, assessed after 7 days, untreated 90%. The protocol: (§1) The active compounds, separately or jointly, were prepared as a stock solution comprising 25 mg of active compound which was made up to 10 ml using a mixture of acetone and/or DMSO and the emulsifier Uniperol® EL (welting agent having an emulsifying and dispersing action based on ethoxylated alkylphenols) in a ratio by volume of solvent/emulsifier of 99:1. The mixture was then made up to 100 ml with water. This stock solution was diluted with the solvent/emulsifier/water mixture described to give the concentration of active compound stated below. Alternatively, the active compounds were employed as a commercial finished formulation and diluted with water to the stated concentration of active compound.
(§2) Curative Activity Against Brown Rust of Wheat Caused by Puccinia recondita
Leaves of polted wheat seedlings of the cultivar “Kanzler” were inoculated with a spore suspension of brown rust (Puccinia recondita). The pots were then placed into a chamber with high atmospheric humidity (90-95%) at 20-22° C. for 24 hours. During this time, the spores germinated and the germ tubes penetrated into the leaf tissue. The next day, the infected plants were sprayed to runoff point with an aqueous suspension having the concentration of active compound stated below. The suspension or emulsion was prepared as described above. After the spray coating had dried on, the test plants were cultivated in a greenhouse at temperatures between 20 and 22° C. and at 65 to 70% relative atmospheric humidity for 7 days. The extent of the rust fungus development on the leaves was then determined.

Data set [2] deals with Puccinia recondita. Briefly: Comparative Test 1: curative activity against brown rust of wheat. In kind it is in vivo. As to conditions: curative spray 1 day after inoculation, wheat cultivar Kanzler, assessed after 7 days, comparison with Comp. 35 of EP-A 0 589301, untreated 90%. The method, then:
as §1, §2
Comp. 35 of EP-A 0 589301 was compared to the compounds 67.1-67.14 according to the invention of table 67. Leaves of potted wheat seedlings of the cultivar “Kanzler” were inoculated with a spore suspension of brown rust (Puccinia recondita). The pots were then placed into a chamber with high atmospheric humidity (90-95%) at 20-22° C. for 24 hours. During this time, the spores germinated and the germ tubes penetrated into the leaf tissue. The next day, the infected plants were sprayed to runoff point with an aqueous suspension having the concentration of active compound stated below. The suspension or emulsion was prepared as described above. After the spray coating had dried on, the test plants were cultivated in a greenhouse at temperatures between 20 and 22° C. and at 65 to 70% relative atmospheric humidity for 7 days. The extent of the rust fungus development on the leaves was then determined.

The test system of another data set is Leptosphaeria nodorum. Briefly: Comparative Test 2: activity against leaf blotch on wheat. The format is in vivo. As to conditions: protective spray 1 day before inoculation, wheat cultivar Kanzler, assessed after 8 days, untreated 80%. The protocol: as §1
Activity Against Leaf Blotch on Wheat Caused by Leptosphaeria nodorum
Comp. 35 of EP-A 0 589301 was compared to the compounds 67.1-67.14 according to the invention of table 67. Pots of wheat plants of the cultivar “Kanzler” was sprayed to runoff point with an aqueous suspension having the concentration of active compound stated below. The next day, the pots were inoculated with an aqueous spore suspension of Leptosphaeria nodorum (syn. Stagonospora nodorum, Septoria nodorum). The plants were then placed into a chamber at 20° C. and maximum atmospheric humidity. After 8 days, the leaf blotch on the untreated but infected control plants had developed to such an extent that the infection could be determined visually in %.

For a further data set, the system named is Botrytis cinerea. Briefly: Use Example 2a: activity against gray mold on bell pepper leaves, protective application. The format is in vivo. As to conditions: protective spray 1 day before inoculation, bell pepper seedlings, assessed after 5 days, untreated 90%. The method, then: as §1
Activity against gray mold on bell pepper leaves caused by Botrytis cinerea, protective application Bell pepper seedlings of the cultivar “Neusiedler Ideal Elite” were, after 2-3 leaves were well developed, sprayed to runoff point with an aqueous suspension having the concentration of active compound stated below. The next day, the treated plants were inoculated with a spore suspension of Botrytis cinerea which comprised 1.7×10^6 spores/ml in a 2% strength aqueous biomalt solution. The test plants were then placed into a dark climatized chamber at 22-24° C. and high atmospheric humidity. After 5 days, the extent of the fungal infection on the leaves could be determined visually in %.

A further data set has as its system Pyrenophora teres. Briefly: Use Example 2b: activity against net blotch of barley, 1 day protective application. As to conditions: protective spray 24 hours before inoculation, barley seedlings, assessed after 6 days, untreated 90%. The format is in vivo. The protocol:
as §1
Activity Against Net Blotch of Barley Caused byPyrenophora teres, 1 day Protective Application
Leaves of potted barley seedlings were sprayed to runoff point with an aqueous suspension having the concentration of active compound stated below. 24 hours after the spray coating had dried on, the test plants were inoculated with an aqueous spore suspension of Pyrenophora [syn. Drechslera] teres, the net blotch pathogen. The test plants were then placed into a greenhouse at temperatures between 20 and 24° C. and 95 to 100% relative atmospheric humidity. After 6 days, the extent of the development of the disease was determined visually in % infection of the total leaf area.

Take `Cn1cc(C(=O)Nc2ccccc2-c2cc(Cl)cc(Cl)c2)c(C(F)F)n1` [Compound 67.1]: the “Infection at PUCCRT K1 at 250 ppm (%)” value in the data set on Puccinia recondita [1] and in the data set with Puccinia recondita [2] was 0% throughout. Also, the “Infection at LEPTNO P1 at 250 ppm (%)” value with Leptosphaeria nodorum came to 25%. For the same molecule, the “Infection at BOTRCI P1 at 250 ppm (%)” value in the data set with Botrytis cinerea worked out at 1%.

On to `Cn1cc(C(=O)Nc2ccccc2-c2ccc(F)c(Cl)c2)c(C(F)F)n1` [Compound 67.2], for which the “Infection at PUCCRT K1 at 250 ppm (%)” value in the data set on Puccinia recondita [1] and with Puccinia recondita [2] was 0% throughout. Besides, in the data set with Leptosphaeria nodorum, the “Infection at LEPTNO P1 at 250 ppm (%)” value is recorded as 3%. Besides, the “Infection at BOTRCI P1 at 250 ppm (%)” value in the data set on Botrytis cinerea stood at 0%.

With `Cn1cc(C(=O)Nc2ccccc2-c2ccc(F)c(F)c2)c(C(F)F)n1` [Compound 67.3], the “Infection at PUCCRT K1 at 250 ppm (%)” value in the data set on Puccinia recondita [1] and in the data set with Puccinia recondita [2] was 0% each time. The “Infection at LEPTNO P1 at 250 ppm (%)” value in the data set on Leptosphaeria nodorum amounted to 7%. The “Infection at BOTRCI P1 at 250 ppm (%)” value in the data set on Botrytis cinerea worked out at 1%.

Regarding `Cn1cc(C(=O)Nc2ccccc2-c2ccc(Cl)c(Cl)c2)c(C(F)F)n1` [Compound 67.4, 3-difluoromethyl-1-methyl-N-(ortho-(3,4-dichlorophenyl)phenyl)-pyrazole-4-carboxamide], the melting point was in the range of 129 to 130 °C. Besides, in the data set with Puccinia recondita [1], the “Infection at PUCCRT K1 at 250 ppm (%)” value was found to be 0%. The “Infection at PUCCRT K1 at 250 ppm (%)” value in the data set on Puccinia recondita [2] is 0%. For the same molecule, the “Infection at LEPTNO P1 at 250 ppm (%)” value in the data set with Leptosphaeria nodorum was determined as 3%. In the data set on Botrytis cinerea, the “Infection at BOTRCI P1 at 250 ppm (%)” value was found to be 0%.

For `Cn1cc(C(=O)Nc2ccccc2-c2ccc(Cl)cc2Cl)c(C(F)F)n1` [Compound 67.5], the “Infection at PUCCRT K1 at 250 ppm (%)” value in the data set on Puccinia recondita [1] and in the data set on Puccinia recondita [2] was 0% each time. Besides, in the data set on Leptosphaeria nodorum, the “Infection at LEPTNO P1 at 250 ppm (%)” value is recorded as 15%.

Consider `Cn1cc(C(=O)Nc2ccccc2-c2cc(F)ccc2F)c(C(F)F)n1` [Compound 67.6], for which the “Infection at PUCCRT K1 at 250 ppm (%)” value with Puccinia recondita [1] and in the data set on Puccinia recondita [2] was 0% each time. Further, the “Infection at LEPTNO P1 at 250 ppm (%)” value with Leptosphaeria nodorum worked out at 3%. The “Infection at BOTRCI P1 at 250 ppm (%)” value with Botrytis cinerea came to 10%.

On to `Cn1cc(C(=O)Nc2ccccc2-c2ccc(Cl)cc2F)c(C(F)F)n1` [Compound 67.7], for which the “Infection at PUCCRT K1 at 250 ppm (%)” value in the data set with Puccinia recondita [1] and in the data set with Puccinia recondita [2] was 0% each time. Further, the “Infection at LEPTNO P1 at 250 ppm (%)” value with Leptosphaeria nodorum worked out at 0%. For the same molecule, the “Infection at PYRNTE P1 at 250 ppm (%)” value in the data set with Pyrenophora teres stood at 5%.

Regarding `Cc1cc(Cl)ccc1-c1ccccc1NC(=O)c1cn(C)nc1C(F)F` [Compound 67.8], the “Infection at PUCCRT K1 at 250 ppm (%)” value in the data set on Puccinia recondita [1] and with Puccinia recondita [2] was 0% in each case. In addition, in the data set with Botrytis cinerea, the “Infection at BOTRCI P1 at 250 ppm (%)” value worked out at 0%.

On to `Cc1cc(-c2ccccc2NC(=O)c2cn(C)nc2C(F)F)ccc1Cl` [Compound 67.9], for which the “Infection at PUCCRT K1 at 250 ppm (%)” value in the data set with Puccinia recondita [1] and in the data set with Puccinia recondita [2] was 3% in each case. In addition, the “Infection at BOTRCI P1 at 250 ppm (%)” value in the data set with Botrytis cinerea is 0%.

Consider `Cc1cc(F)ccc1-c1ccccc1NC(=O)c1cn(C)nc1C(F)F` [Compound 67.10], for which the “Infection at PUCCRT K1 at 250 ppm (%)” value with Puccinia recondita [1] and in the data set with Puccinia recondita [2] was 0% in each case. Also, the “Infection at LEPTNO P1 at 250 ppm (%)” value with Leptosphaeria nodorum is listed as 15%. Besides, in the data set with Botrytis cinerea, the “Infection at BOTRCI P1 at 250 ppm (%)” value was 0%.

`Cc1cc(-c2ccccc2NC(=O)c2cn(C)nc2C(F)F)ccc1F` [Compound 67.11]: the “Infection at PUCCRT K1 at 250 ppm (%)” value with Puccinia recondita [1] and in the data set on Puccinia recondita [2] was 0% throughout. For the same molecule, the “Infection at BOTRCI P1 at 250 ppm (%)” value in the data set with Botrytis cinerea is reported as 0%.

With `Cn1cc(C(=O)Nc2ccccc2-c2ccc(Cl)c(F)c2)c(C(F)F)n1` [Compound 67.12], the “Infection at PUCCRT K1 at 250 ppm (%)” value in the data set on Puccinia recondita [1] and with Puccinia recondita [2] was 0% throughout. Besides, in the data set on Leptosphaeria nodorum, the “Infection at LEPTNO P1 at 250 ppm (%)” value is 3%. In addition, the “Infection at BOTRCI P1 at 250 ppm (%)” value with Botrytis cinerea turned out to be 7%.

Take `Cn1cc(C(=O)Nc2ccccc2-c2ccc(F)cc2F)c(C(F)F)n1` [Compound 67.13]: the “Infection at PUCCRT K1 at 250 ppm (%)” value with Puccinia recondita [1] and with Puccinia recondita [2] was 0% each time. Moreover, the “Infection at LEPTNO P1 at 250 ppm (%)” value in the data set on Leptosphaeria nodorum is listed as 3%. Besides, in the data set with Pyrenophora teres, the “Infection at PYRNTE P1 at 250 ppm (%)” value was 5%.

Consider `COc1ccc(-c2ccccc2NC(=O)c2cn(C)nc2C(F)F)c(C)c1` [Compound 67.14], for which the “Infection at PUCCRT K1 at 250 ppm (%)” value in the data set with Puccinia recondita [1] and in the data set on Puccinia recondita [2] was 0% throughout. The “Infection at LEPTNO P1 at 250 ppm (%)” value in the data set with Leptosphaeria nodorum is 5%.

As for `Cn1cc(C(=O)Nc2ccccc2-c2ccccc2)c(C(F)F)n1` [reference compound], the “Infection at PUCCRT K1 at 250 ppm (%)” value with Puccinia recondita [2] was found to be 25%. For the same molecule, in the data set with Leptosphaeria nodorum, the “Infection at LEPTNO P1 at 250 ppm (%)” value is on record as 80%.
